What was measured:
FCγIIb/c = assay: Repeated FcγR reverse ELISA with SEQ ID NO:20 (Table 3); assay type: binding
Protocol: (§1) Experiments with SEQ ID NO:20 were repeated. Costar microtiter plates were coated with 1:10 dilutions of highly purified FcγIIa (His 131 allele aka […]), FcγIIb and FcγIIIb and incubated for 24 hours. The plates were washed and then blocked with 10 mg/ml BSA blocking solution for 24 hours. PAP immune complexes were formed as described in Example 2. PAP (100 μl) were pre-incubated with 100 μl of peptide for one hour. PAP/peptide mixtures were added to the FcγR coated plates and incubated for one hour. After washing, plates were incubated with ABTS substrate for 15 minutes and read at 405 nm.

FcγIIa (His 131 allele) = assay: as above; assay type: binding; details: H131 allele
Protocol: as §1

FCγIIIb (NA2) = assay: as above; assay type: binding
Protocol: as §1

FcγIIa (R131 allele) = assay: FcγR reverse ELISA: inhibition of PAP immune complex binding (Table 2); details: PAP/peptide mixture on FcγR coated plates; positive control 1.599
Source text: (§2) For this reason, a “reverse ELISA” technique has been used to assess binding of the Fc region to ligands that bind to immune complexed IgG Fc. In a reverse ELISA, the enzyme (e.g., HRP) is not covalently conjugated to the Fc portion of the secondary antibody. Rather, a preformed immune complex of peroxidase-rabbit (or mouse) anti-peroxidase IgG (“PAP” complex) is used. […] In the reverse ELISA system, an Fc CH2-CH3 cleft binding ligand (e.g., purified human C1q) was bound to microwell plates. In the absence of competitor, PAP complexes bound to the immobilized ligand and the reaction between HRP and its substrate produces a signal. This signal was reduced by polypeptides and compounds that inhibited PAP binding to the immobilized ligand.
(§3) Once the reverse ELISA protocol was established using the C1q assay, the assay was redesigned using FcγIIa, FcγIIb and FcγIII in place of C1q. Highly purified FcγIIa, FcγIIb and FcγIII (R&D Systems, Minneapolis, Minn.) were immunoadsorbed onto plastic microwells. After optimizing the FcγR reverse ELISA system, simple competitive inhibition experiments using polypeptides provided herein were conducted to investigate their ability to inhibit binding of immune complexes to purified FcγR.
(§4) Falcon microtiter plates were coated with 1:10 dilutions of highly purified FcγIIa, FcγIIb and FcγIII and incubated for 24 hours. The plates were washed and then blocked with 5×BSA blocking solution (Alpha Diagnostic International, San Antonio, Tex.) for 24 hours. PAP immune complexes were formed as described in Example 1. PAP (100 μl) were pre-incubated with 100 μl of peptide for one hour. PAP/peptide mixtures were added to the FcγR coated plates and incubated for one hour. After washing, plates were incubated with ABTS substrate (Quidel Corp.) for 15 minutes and read at 405 nm.

FcγIIb = assay: as above; details: PAP/peptide mixture on FcγR coated plates; positive control 1.394
Source text: as §2, §3, §4

FcγIIIa = assay: as above; details: PAP/peptide mixture on FcγR coated plates; positive control 1.588
Source text: as §2, §3, §4

human C1q = assay: Reverse ELISA: inhibition of PAP immune complex binding to C1q coated plates
Source text: as §2
PAP complexes were formed mixing 2 μl of rabbit anti-peroxidase (Sigma Chemicals, St. Louis, Mo.; Cat. No. P7899) with 50 μl of peroxidase (Sigma-Aldrich, Cat. No. P6782) in 1 ml distilled water. PAP (100 μl) were pre-incubated with 100 μl of peptide for one hour, 100 μl were pre-incubated with 100 μl of peptide or human C1q (Quidel Corp., San Diego, Calif.) for one hour. The C1q/PAP and peptide/PAP mixtures (100 μl) were incubated with C1q coated plates for 30 minutes. After washing, plates were incubated with ATBS (Quidel Corp.) for 15 minutes and read at 405 nm.

With “Ala-Pro-Pro-Asp-Cys-Ala-Trp-His-Leu-Gly-Glu-Leu-Val-Trp-Cys-Thr (APPDCAWHLGELVWCT) [SEQ ID NO:20]” the “FCγIIb/c (read at 405 nm)” value (FCγIIb/c; repeat experiment, positive control 2.218) was 0.266, the “% inhibition of IC binding, FCγIIb/c” value (FCγIIb/c; versus positive control) was 88% and the “FCγIIa* (read at 405 nm)” value (FcγIIa (His 131 allele); repeat experiment, positive control 3.509) was 0.209. The “% inhibition of IC binding, FCγIIa*” value (FcγIIa (His 131 allele); versus positive control) was 94%, the “FCγIIIb (NA2) (read at 405 nm)” value (FCγIIIb (NA2); repeat experiment, positive control 3.060) was 0.266 and the “% inhibition of IC binding, FCγIIIb (NA2)” value (FCγIIIb (NA2); versus positive control) was 91%. For the same substance, the “OD405 FcγIIa (R131 allele)” value (FcγIIa (R131 allele)) was 0.509, the “OD405 FcγIIb” value (FcγIIb) was 0.496 and the “OD405 FcγIIIa” value (FcγIIIa) was 0.670. For the same substance, the “OD 405 nm” value (human C1q; PAP pre-incubated with peptide or C1q one hour, C1q coated plates, lower OD = more inhibition, positive control 2.355) was 0.389 and the “Inhibition of C1q binding (ranking in words)” value (human C1q; summary of Table 1) was “greatest inhibition of C1q binding”.

— patent publication US20120021988A1, “METHODS FOR TREATING IMMUNE THROMBOCYTOPENIA” (priority 2007, published 2012)
